According to PMC5132081 (The Febs Journal, 2016):
Like-named read-outs stand apart in the source and are kept apart here.

What was measured:
CYP109E1 [1] = target: T1, CYP109E1 (Priestia megaterium, UniProt D5DKI8); test: co-crystal structure; type: binding
T1 sequence (D5DKI8 1-404): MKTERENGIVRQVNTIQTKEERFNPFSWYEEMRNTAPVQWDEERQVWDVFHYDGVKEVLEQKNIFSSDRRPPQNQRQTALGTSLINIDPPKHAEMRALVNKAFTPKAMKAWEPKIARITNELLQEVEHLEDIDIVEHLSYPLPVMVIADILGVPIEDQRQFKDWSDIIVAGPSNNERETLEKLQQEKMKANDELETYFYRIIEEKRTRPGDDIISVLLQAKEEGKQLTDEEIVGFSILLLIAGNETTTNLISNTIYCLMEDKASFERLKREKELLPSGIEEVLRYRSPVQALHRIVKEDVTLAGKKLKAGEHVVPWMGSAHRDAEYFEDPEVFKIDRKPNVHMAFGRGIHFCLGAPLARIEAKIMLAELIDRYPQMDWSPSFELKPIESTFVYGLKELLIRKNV

CYP109E1 [2] = target: T1, CYP109E1; test: co-crystal structure; type: binding; remark: listed apart in the source
CYP109E1 [3] = target: CYP109E1 (Priestia megaterium, UniProt D5DKI8, K187A); test: in vitro turnover of purified mutant with Adx4-108/AdR, HPLC; type: biochemical
CYP109E1 [4] = target: CYP109E1 (Priestia megaterium, UniProt D5DKI8, E245A); test: as above; type: biochemical

Row | Structure (SMILES) | Kd (CYP109E1 [1]) [µM] | Kd (CYP109E1 [2]) [µM] | Catalytic activity for the formation of 16β-OH-TES, nmol.(nmol P450)^-1.min^-1 (CYP109E1 [3]) | Catalytic activity for the formation of 16β-OH-TES, nmol.(nmol P450)^-1.min^-1 (CYP109E1 [4])
1 | C[C@]12C[C@H](O)[C@H]3[C@@H](CCC4=CC(=O)CC[C@@]43C)[C@@H]1CC[C@@H]2C(=O)CO [compound 4, corticosterone] | 91 ± 8 |  |  | 
2 | C[C@]12CC[C@H]3[C@@H](CCC4=CC(=O)CC[C@@]43C)[C@@H]1CC[C@@H]2O [compound 11, testosterone] |  | 105 ± 10 | 1.43 ± 0.06 nmol·(nmol P450)^−1·min^−1 | 4.69 ± 0.04 nmol·(nmol P450)^−1·min^−1
